Results: patent US8063048B2, “Acetylenyl-pyrazolo-pyrimidine derivatives” (Hoffmann-La Roche Inc., priority 2005, dated 2011)

| Structure (SMILES) | melting point [°C] |
| --- | --- |
| Cc1cc(CNS(=O)(=O)c2ccc(C#Cc3cnn4c(C(F)(F)F)cc(-c5ccc(C(F)(F)F)cc5)nc34)s2)cc(C)n1 [Example 283, 5-[7-Trifluoromethyl-5-(4-trifluoromethyl-phenyl)-pyrazolo[1,5-a]pyrimidin-3-ylethynyl]-thiophene-2-sulfonic acid (2,6-dimethyl-pyridin-4-ylmethyl)-amide] | 200 |
| Nc1ccc(C#Cc2ncn3c(C(F)(F)F)cc(-c4ccc(C(F)(F)F)cc4)nc23)cn1 [Example 284, 5-[4-Trifluoromethyl-2-(4-trifluoromethyl-phenyl)-imidazo[1,5-a]pyrimidin-8-ylethynyl]-pyridin-2-ylamine] | 225 |
| Nc1ncc(C#Cc2ncn3c(C(F)(F)F)cc(-c4ccc(C(F)(F)F)cc4)nc23)cn1 [Example 285, 5-[4-Trifluoromethyl-2-(4-trifluoromethyl-phenyl)-imidazo[1,5-a]pyrimidin-8-ylethynyl]-pyrimidin-2-ylamine] | 294 |
| Nc1cnc(C#Cc2cnn3c(C(F)(F)F)cc(-c4ccc(C(F)(F)F)cc4)nc23)cn1 [Example 286, 5-[7-Trifluoromethyl-5-(4-trifluoromethyl-phenyl)-pyrazolo[1,5-a]pyrimidin-3-ylethynyl]-pyrazin-2-ylamine] | 200 |
| Nc1cnc(C#Cc2cnn3c(C(F)F)cc(-c4ccc(C(F)(F)F)cc4)nc23)cn1 [Example 287, 5-[7-Difluoromethyl-5-(4-trifluoromethyl-phenyl)-pyrazolo[1,5-a]pyrimidin-3-ylethynyl]-pyrazin-2-ylamine] | 233 |
| N#Cc1ccc(C#Cc2cnn3c(C(F)(F)F)cc(-c4ccc(C(F)(F)F)cc4)nc23)cn1 [Example 288, 5-[7-Trifluoromethyl-5-(4-trifluoromethyl-phenyl)-pyrazolo[1,5-a]pyrimidin-3-ylethynyl]-pyridine-2-carbonitrile] | 212 |
| Cc1cc(-c2cc(C(F)(F)F)n3ncc(C#Cc4ccc(N)nc4)c3n2)ccc1C(F)(F)F [Example 289, 5-[5-(3-Methyl-4-trifluoromethyl-phenyl)-7-trifluoromethyl-pyrazolo[1,5-a]pyrimidin-3-ylethynyl]-pyridin-2-ylamine] | 201 |
| Cc1cc(-c2cc(C(F)(F)F)n3ncc(C#Cc4cnc(N)nc4)c3n2)ccc1C(F)(F)F [Example 290, 5-[5-(3-Methyl-4-trifluoromethyl-phenyl)-7-trifluoromethyl-pyrazolo[1,5-a]pyrimidin-3-ylethynyl]-pyrimidin-2-ylamine] | 240 |
| CC(=O)Nc1ncc(C#Cc2cnn3c(C(F)(F)F)cc(-c4ccc(C(F)(F)F)cc4)nc23)s1 [Example 291, N-{5-[7-Trifluoromethyl-5-(4-trifluoromethyl-phenyl)-pyrazolo[1,5-a]pyrimidin-3-ylethynyl]-thiazol-2-yl}-acetamide] | 302 |
| Cc1cc(-c2ccc(Cl)cc2)nc2c(C#Cc3ccc(S(N)(=O)=O)cc3)cnn12 [Example 292, 4-[5-(4-Chloro-phenyl)-7-methyl-pyrazolo[1,5-a]pyrimidin-3-ylethynyl]-benzenesulfonamide] | 230 to 233 |
| Nc1ccc(C#Cc2cnn3c(C4CC4)cc(-c4ccc(C(F)(F)F)cc4)nc23)cn1 [Example 293, 5-[7-Cyclopropyl-5-(4-trifluoromethyl-phenyl)-pyrazolo[1,5-a]pyrimidin-3-ylethynyl]-pyridin-2-ylamine] | 228 to 231 |
| Nc1ccc(C#Cc2cnn3c(C4CC4)cc(-c4ccc(Cl)cc4)nc23)cn1 [Example 294, 5-[5-(4-Chloro-phenyl)-7-cyclopropyl-pyrazolo[1,5-a]pyrimidin-3-ylethynyl]-pyridin-2-ylamine] | 233 to 235 |
| Cc1cc(-c2ccc(Cl)cc2)nc2c(C#Cc3ccc(N)nc3)cnn12 [Example 295, 5-[5-(4-Chloro-phenyl)-7-methyl-pyrazolo[1,5-a]pyrimidin-3-ylethynyl]-pyridin-2-ylamine] | 244 to 246 |
| Nc1ccc(C#Cc2cnn3c(CO)cc(-c4ccc(Cl)cc4)nc23)cn1 [Example 298, [3-(6-Amino-pyridin-3-ylethynyl)-5-(4-chloro-phenyl)-pyrazolo[1,5-a]pyrimidin-7-yl]-methanol] | 215 to 217 |
| CC(C)(O)c1ccc(C#Cc2cnn3c(CO)cc(-c4ccc(Cl)cc4)nc23)cc1 [Example 299, 2-{4-[5-(4-Chloro-phenyl)-7-hydroxymethyl-pyrazolo[1,5-a]pyrimidin-3-ylethynyl]-phenyl}-propan-2-ol] | 118 to 120 |
| CC(C)(O)c1ccc(C#Cc2cnn3c(C4CC4)cc(-c4ccc(Cl)cc4)nc23)cc1 [Example 300, 2-{4-[5-(4-Chloro-phenyl)-7-cyclopropyl-pyrazolo[1,5-a]pyrimidin-3-ylethynyl]-phenyl}-propan-2-ol] | 148 to 150 |
| Cc1cc(-c2ccc(Cl)cc2)nc2c(C#Cc3ccc(C(C)(C)O)cc3)cnn12 [Example 301, 2-{4-[5-(4-Chloro-phenyl)-7-methyl-pyrazolo[1,5-a]pyrimidin-3-ylethynyl]-phenyl}-propan-2-ol] | 112 to 115 |
| CCc1cc(-c2ccc(Cl)cc2)nc2c(C#Cc3ccc(N)nc3)cnn12 [Example 304, 5-[5-(4-Chloro-phenyl)-7-ethyl-pyrazolo[1,5-a]pyrimidin-3-ylethynyl]-pyridin-2-ylamine] | 205 to 206 |
| CCCc1cc(-c2ccc(Cl)cc2)nc2c(C#Cc3ccc(N)nc3)cnn12 [Example 305, 5-[5-(4-Chloro-phenyl)-7-propyl-pyrazolo[1,5-a]pyrimidin-3-ylethynyl]-pyridin-2-ylamine] | 215 to 217 |
| CNC(=O)c1ccc(C#Cc2cnn3c(C4CC4)cc(-c4ccc(Cl)cc4)nc23)cc1 [Example 306, 4-[5-(4-Chloro-phenyl)-7-cyclopropyl-pyrazolo[1,5-a]pyrimidin-3-ylethynyl]-N-methyl-benzamide] | 214 to 216 |
| CC(C)(C)c1cc(-c2ccc(Cl)cc2)nc2c(C#Cc3ccc(S(N)(=O)=O)s3)cnn12 [Example 307, 5-[7-tert.-Butyl-5-(4-chloro-phenyl)-pyrazolo[1,5-a]pyrimidin-3-ylethynyl]-thiophene-2-sulfonic acid amide] | 253 to 255 |
| Cc1cc(-c2ccc(C(F)(F)F)cc2)nc2c(C#Cc3ccc(S(=O)(=O)NC(CO)CO)s3)cnn12 [Example 308, 5-[7-Methyl-5-(4-trifluoromethyl-phenyl)-pyrazolo[1,5-a]pyrimidin-3-ylethynyl]-thiophene-2-sulfonic acid (2-hydroxy-1-hydroxymethyl-ethyl)-amide] | 148 to 152 |
| Nc1ccc(C#Cc2cnn3ccc(-c4ccc(C(F)(F)F)cc4)nc23)cn1 [Example 310, 5-[5-(4-Trifluoromethyl-phenyl)-pyrazolo[1,5-a]pyrimidin-3-ylethynyl]-pyridin-2-ylamine] | 213 to 214 |
| NS(=O)(=O)c1ccc(C#Cc2cnn3ccc(-c4ccc(C(F)(F)F)cc4)nc23)s1 [Example 311, 5-[5-(4-Trifluoromethyl-phenyl)-pyrazolo[1,5-a]pyrimidin-3-ylethynyl]-thiophene-2-sulfonic acid amide] | 224 to 226 |
